In patent publication US20230248744A1, “25-HYDROXYVITAMIN D2 AND/OR D3 FOR USE IN OBESITY” (CARBOGEN AMCIS B.V., priority 2020, published 2023):
Like-named read-outs stand apart in the source and are kept apart here. One block for each compound: values may come before it.

Columns and labels:
[1] = Double-blind randomized crossover pharmacokinetic study, single oral 900 μg vitamin D3 or 25(OH)D3; format: in vivo, human; details: for Cmax / Tmax / concentration at 14 days / half-life / AUC: both sexes, human, serum, po, single oral 900 μg, mean ± SEM; for Cmax / Tmax / half-life / AUC: 900 ug; for concentration at 14 days: 900 μg, read-out: Ctrough (trough level at day 14); for half-life: read-out: T1/2 (elimination half-life) (converted)
Description: The conclusions as presented herein are based on the following experiments: In a double-blinded cross-over study single high dosages (900 μg total in two soft gel capsules containing 450 μg) of either vitamin D3 or 25(OH)D3 were administered to vitamin D-deficient volunteers including healthy controls as well as subjects with a history of malabsorption. At the outset, the BMI was determined. Blood samples were then taken at baseline and at 2, 4, 6, 8, and 12 hours as well as 1, 2, 3, 7, and 14 days after administration (FIG. 2). All the samples were analyzed for their contents in vitamin D3 per se as well as 25(OH)D3. […] In addition, peak levels were more rapidly reached with 25(OH)D3 than with vitamin D3 (see FIG. 5). The immediate increase in serum 25(OH)D3 compared to the delayed increase observed with vitamin D3 supports the concept that 25(OH)D3 is being rapidly absorbed from the small intestine into the portal circulation, whereas vitamin D3 first needs to be incorporated into the chylomicrons which are absorbed into the lymphatic system.
The pharmacokinetic parameters of orally administered 25(OH)D3 and vitamin D3 (both provided for formulation in form of visually identical soft-gel pills) were studied based on the corresponding serum concentration-time curves in healthy adults and adults with a history of intestinal malabsorption (see FIG. 2). Cinical safety has been evaluated by monitoring serum calcium, phosphorus, parathyroid hormone (PTH) and 25(OH)D levels at the beginning and end of the study. Furthermore, the distribution of supplemented 25(OH)D3 (or 25(OH)D2) into adipose tissue and the role it is playing there was also studied.
Serum levels of calcium, phosphorus, albumin, creatinine and intact parathyroid hormone (iPTH) were determined at baseline and at the end of each 14-day pharmacokinetic study (see Table 4). The pharmacokinetic parameters have been determined by evaluating the serum concentration-time curves in patients with malabsorption syndrome and healthy controls (Tables 5 and 6).
The primary outcomes of the study are the serum pharmacokinetic parameters of 25(OH)D3 and vitamin D3 after a single oral administration of 900 μg of each in a double-blind randomized crossover study.
Adult patients (18 years and older) with a history of intestinal malabsorption (n=10) and healthy adult volunteers (n=10); (of both sexes and all ethnicities) has been recruited in this randomized double-blinded crossover study. The BMI has been determined and recorded at baseline. All subjects have been prescreened for 25(OH)D levels to include subjects with 25(OH)D<30 ng/mL. The subjects have been randomized to receive two oral doses of 450 μg taken simultaneously (total 900 μg) of either vitamin D3 or 25(OH)D3. Blood samples were taken at baseline and at 2, 4, 6, 8, 12 hours and days 1, 2, 3, 7 and 14. There was a two weeks washout period before the subject received in a double blinded manner, two oral doses of 450 μg taken simultaneously (total 900 μg) of either 25(OH)D3 or vitamin D3 (depending on which one they took in the randomization) any time after the 2 week washout. Blood samples were taken at baseline and at 2, 4, 6, 8, 12 hours and days 1, 2, 3, 7 and 14 days. Serum levels of calcium, phosphorus, albumin, creatinine, and intact parathyroid hormone (iPTH) were obtained at baseline and at day 14 for each arm (or within a reasonable time if the study participant was unable to come on the exact day).
The individuals participating in the study had, after signing a consent form, been randomized by a computer randomization chart in a blinded manner to receive two oral doses of 450 μg taken simultaneously (total 900 μg) of either vitamin D3 or 25(OH)D3. Blood samples have been taken at baseline and at 2, 4, 6, 8, 12 hours and days 1, 2, 3, 7 and 14. […]

[2] = vitamin D deficient postmenopausal women; single p.o. bolus of 140 μg of each substance; cited from earlier work
[3] = cited from earlier work
[4] = single or multiple oral doses of 1250 μg vitamin D, or a dose of 900 μg 25(OH)D3; cited from earlier work
[5] = cited from earlier work; remark: listed apart in the source
[6] = cited from earlier work; remark: listed apart in the source
[7] = healthy participants with higher BMI (N = 5)
[8] = healthy participants with lower BMI (N = 5)
[9] = patients with fat malabsorption (N = 6)

- time at which the peak of the serum concentration is reached ([1]; FIG. 5, oral 900 μg): ~8 h
- bioavailability in subjects with a history of vitamin D/fat malabsorption ([1]; after administration of the respective product, FIGS. 3a and b): almost normal
- Cmax ([1]; healthy participants (N = 10)): 23.1 ± 4.6 ng/mL
- Tmax ([1]; healthy participants (N = 10)): 11.2 ± 4.1 h
- concentration at 14 days ([1]; healthy participants (N = 10)): 6.1 ± 1.3 ng/mL
- half-life ([1]; healthy participants (N = 10)): 60.6 ± 7.9 h
- AUC ([1]; healthy participants (N = 10), serum level of the administered substance): 3130 ± 545 ng·h/mL
- AUC [1, 7]: 2620 ± 855 ng·h/mL
- Cmax [1, 7]: 21.4 ± 8 ng/mL
- Tmax [1, 7]: 15.2 ± 8.2 h
- concentration at 14 days [1, 7]: 4.6 ± 1.4 ng/mL
- half-life [1, 7]: 55 ± 10.7 h
- AUC [1, 8]: 3630 ± 690 ng·h/mL
- Cmax [1, 8]: 24.8 ± 5.5 ng/mL
- Tmax [1, 8]: 7.2 ± 0.5 h
- concentration at 14 days [1, 8]: 7.6 ± 2.1 ng/mL
- half-life [1, 8]: 66.2 ± 12.3 h
- Cmax [1, 9]: 23.2 ± 6.8 ng/mL
- Tmax [1, 9]: 5.3 ± 0.7 h
- concentration at 14 days [1, 9]: 6.7 ± 1.5 ng/mL
- half-life [1, 9]: 65.7 ± 29.9 h
- AUC ([1]; patients with fat malabsorption (N = 6), serum level of the administered substance): 2670 ± 735 ng·h/mL
Compound: C=C1CC[C@H](O)C/C1=C/C=C1\CCC[C@]2(C)[C@@H]([C@H](C)CCCC(C)(C)O)CC[C@@H]12 [25-hydroxyvitamin D3]
- Cmax increase over baseline of 25(OH)D3 [2]: 24.7 ng/mL
- increase of 25(OH)D by 24 hours ([3]; after bolus intravenous dose): 40 ng/mL
- toxicity ([3]; bolus intravenous 448 μg or 900 μg slow release): No toxicity was observed
- increase of peak concentration of 25(OH)D above baseline ([3]; bolus intravenous dose of 448 μg): approximately 110 ng/mL
- toxicity in pharmacokinetic study ([3]; oral single dose of 900 μg): did not show any untoward toxicity
- reports of toxicity [4]: toxicity has never been reported
- power of oral calcifediol relative to oral cholecalciferol (vitamin D3) [5]: three- to five-time more powerful

Compound: vitamin D
- peak serum vitamin D concentration ([6]; single oral dose of 1.25 mg (50'000 IU), baseline less than 5 ng/mL): over 50 ng/mL
- time of fall of serum vitamin D to baseline levels ([6]; single oral dose of 1.25 mg): ≤ 3 days
- time of peak serum vitamin D concentration ([6]; single oral dose of 1.25 mg): ≤ 12 h

Compound: C=C1CC[C@H](O)C/C1=C/C=C1\CCC[C@]2(C)[C@@H]([C@H](C)/C=C/[C@H](C)C(C)C)CC[C@@H]12 [vitamin D2, ergocalciferol]
- serum vitamin D concentration reached ([6]; five of the seven patients with intestinal fat malabsorption, oral 50,000 IU): ≤ 10 ng/mL
